# Measured values as given in patent publication US20070225171A1 (priority 2001, published 2007).
# How the values were obtained:
# [1] = test system: SAD2 - Cultivar UC82B genetically engineered to express a synthetic gene for tolerance to phenoxy herbicides; assay: Fruit yield assay, 2,4-D sprayed on transgenic SAD2 tomato; assay type: in vivo, Lycopersicon esculentum; conditions: for Total Yield (Fresh Fruit Yield) / Fruit Weight (Average Fresh Fruit Weight) / Total Flowers / Fruit per Plant / Total Fruit No.: SAD2 tomato; for Total Yield (Fresh Fruit Yield): harvested over 60 days; for Fruit Weight (Average Fresh Fruit Weight) / Total Flowers / Fruit per Plant / Total Fruit No.: 60 days; for Total Flowers: Flower Number/plant/replication/treatment; for Fruit per Plant: Fruit Number/plant/replication/treatment; for Total Fruit No.: Total Fruit Number/replication/treatment
# Description: (§1) The use of exogenously supplied synthetic auxins on agronomic crops to elicit direct non-herbicidal effects was further assessed using genetically-engineered tomato plant lines expressing a synthetic auxin metabolizing gene, and non-genetically-engineered controls. Tomato was utilized to model fruit retention (fruit set) and fruit yield. The transgenic tomato line was utilized in the T2 generation with the transgene fixed in a homozygous fashion. The tomato genotype UC82L was utilized as the control, as well as the background for tranformation with the pPZP211-PNPT-311-SAD2 binary plasmid. This genotype was chosen because it is more likely to closely approximate the behavior of field-grown tomatoes than some short-life-cycle laboratory strains of tomato.
# (§2) In the same manner as for tobacco, the research was conducted in a single phase entailing characterization of response variables when plants were subjected to the maximum (1× rate=1 pound/acre of active ingredient) and low (¼×=4 ounces/acre of active ingredient) rates of exogenously applied 2,4-D. The overall experimental design was comprised of three parallel completely randomized designs with spray rate and genotype as the main factors. Three replications were performed for each treatment within each experiment. Each replication was the average of three plants that were harvested over a period of 60 days. Fruit number, fruit weight and flower number were measured directly, with average fruit weight and average fruit per plant being derived by dividing fruit weight and fruit number within a replication by the number of plants (3). Tomato fruit yield was measured on fresh fruit and recorded in grams.
# The binary plasmid pPZP211-PNPT-311-SAD2 used for transformation was the same as that used in Example 1, and tomato (Lycopersicon esculentum) cultivar UC82B (a cultivar nearly identical to UC82L) was transformed by Agrobacterium-mediated transformation of leaf tissue with the binary plasmid as described in Example 1. Transgenic plants were produced from the transformed leaf tissue as described in Example 1.
# (§3) Non-transgenic and transgenic seed were germinated and grown as described in Example 1 for tobacco. The transgenic tomato line was utilized in the T2 generation with the transgene fixed in a homozygous fashion.
# (§4) The plants with 4 fully-extended leaves retained were sprayed as described in Example 1. Each replication (3 plants) was sprayed independently and permitted to dry before being moved back to the greenhouse for further growth for 60 days.
# (§5) Fruit number, fruit weight, and flower number were measured directly during this 60-day period. Tomato fruit yield was measured on fresh fruit and recorded in grams.
# [2] = test system: tomato genotype UC82L (control); assay: Fruit yield assay, 2,4-D sprayed on non-transgenic tomato; assay type: in vivo, Lycopersicon esculentum; conditions: for Total Yield (Fresh Fruit Yield) / Fruit Weight (Average Fresh Fruit Weight) / Total Flowers / Fruit per Plant / Total Fruit No.: UC82L; for Total Yield (Fresh Fruit Yield): harvested over 60 days; for Fruit Weight (Average Fresh Fruit Weight) / Total Flowers / Fruit per Plant / Total Fruit No.: 60 days; for Total Flowers: Flower Number/plant/replication/treatment; for Fruit per Plant: Fruit Number/plant/replication/treatment; for Total Fruit No.: Total Fruit Number/replication/treatment
# Description: as §1, §2, §3, §4, §5
# [3] = test system: Plants expressing the dioxygenase encoded by the tfdA gene; assay: Herbicide tolerance of plants expressing the tfdA dioxygenase; assay type: in vivo; conditions: found by applicant
# Description: See, e.g., Llewellyn and Last, in Herbicide-Resistant Crops Chapter 10, pages 159-174 (Duke, ed., CRC Lewis Publishers 1996). Preferably, additional bacterial codons of the tfdA coding sequence are replaced by plant-preferred codons to obtain better expression of the encoded dioxygenase. […] See, e.g., Llewellyn and Last, in Herbicide-Resistant Crops Chapter 10, pages 159-174 (Duke, ed., CRC Lewis Publishers 1996) and U.S. Pat. Nos. 6,100,446 and 6,153,401.
# [4] = spray rate 1X (1 pound active ingredient/acre), 2,4-D isooctyl ester formulation
# [5] = spray rate ¼X (4 ounces active ingredient/acre), 2,4-D isooctyl ester formulation
compound,measurement,setting,value
"O=C(O)COc1ccc(Cl)cc1Cl [2,4-D, 2,4-dichlorophenoxyacetic acid]",Total Yield (Fresh Fruit Yield),[1]; [4],131.9 grams/plant/replication/treatmen
same,Fruit Weight (Average Fresh Fruit Weight),[1]; spray rate 1X,13.7 grams/fruit/plant/replication/treatment
same,Total Flowers,[1]; spray rate 1X,19.7
same,Fruit per Plant,[1]; spray rate 1X,2.4
same,Total Fruit No.,[1]; spray rate 1X,9.7
same,Total Yield (Fresh Fruit Yield),[1]; [5],122.9 grams/plant/replication/treatmen
same,Fruit Weight (Average Fresh Fruit Weight),[1]; spray rate ¼X,14.4 grams/fruit/plant/replication/treatment
same,Total Flowers,[1]; spray rate ¼X,17.3
same,Fruit per Plant,[1]; spray rate ¼X,2.2
same,Total Fruit No.,[1]; spray rate ¼X,8.7
same,effect on average fruit weight,"[1]; transgenic line, ¼× rate",increase in average fruit weight
same,effect on total flower number,"[1]; transgenic lines, ¼× rate",increasing the number of flowers
same,Total Yield (Fresh Fruit Yield),[2]; [4],35.3 grams/plant/replication/treatmen
same,Fruit Weight (Average Fresh Fruit Weight),[2]; spray rate 1X,14.1 grams/fruit/plant/replication/treatment
same,Total Flowers,[2]; spray rate 1X,4.3
same,Fruit per Plant,[2]; spray rate 1X,0.6
same,Total Fruit No.,[2]; spray rate 1X,2.3
same,Total Yield (Fresh Fruit Yield),[2]; [5],66.1 grams/plant/replication/treatmen
same,Fruit Weight (Average Fresh Fruit Weight),[2]; spray rate ¼X,26.0 grams/fruit/plant/replication/treatment
same,Total Flowers,[2]; spray rate ¼X,6.0
same,Fruit per Plant,[2]; spray rate ¼X,0.8
same,Total Fruit No.,[2]; spray rate ¼X,3.0
same,effect on average fruit weight,"[2]; control line, ¼× rate",increase in average fruit weight
same,effect on total flower number,"[2]; control material, ¼× rate",reducing the number of flowers
same,tolerance of plants to the herbicide,[3],tolerant
